The source of these data is patent US6838096B2, “Black soybean polysaccharides” (Taipei Veterans General Hospital, priority 2001, dated 2005).

One data set deals with BALB/c mice. Nature of the data set: Myelopoietic activity in 5-FU-treated BALB/c mice with or without CT26 tumor implantation. The data set is classed as in vivo. As to conditions: 5-FU 150 mg/kg i.p. On the procedure: BALB/c mice (6-10 weeks old, 20±5 g) were obtained and kept in specific pathogen-free conditions with a controlled temperature and humidity, under a 12-h light/dark cycle, and given free access to food and water. All experiments were performed in accordance with the guidelines provided in the NIH Guide for the Care and Use of Laboratory Animals (DHHS publication No. NIH 85-23, revised 1996). CT26 murine colon adenocarcinoma and BALB/c syngenic were maintained in RPMI 1640 medium (Life technology, Grand Island, N.Y.) supplemented with 10% heat-inactivated FCS (HyClone, Logan, Utah) and 2 mM L-glutamine (Sigma, St. Louis, Mo.), and cultured at 37° C. in a humidified atmosphere containing 5% CO2. These cells were subcutaneously implanted into left flank of BALB/c mice.
For non-tumor implanted experiments, 5-FU (150 mg/kg body weight) was intraperitoneally (i.p.) injected into BALB/c mice on day 0, and PSBS (100 or 400 mg/kg body weight) was given by oral or interperitoneal administration daily once for 5 consecutive days 6 h after 5-FU injection. Mice in control group received normal saline at the same time. While in tumor-implanted model, 1×10^6 CT26 tumor cells in PBS per mouse was s.c. injected in the left flank of mice. […]

Turning to `O=c1[nH]cc(F)c(=O)[nH]1` [5-FU, 5-fluorouracil], the CFU-GM colony numbers in the data set with 5-FU-treated mice (5-FU alone, single dose 150 mg/kg i.p., day 11) is recorded as 41±5 colonies. In addition, in the data set on 5-FU-treated mice (mouse, in vivo, ip, 150 mg/kg), the myelosuppression result is “apparent myelosuppression” and the number of leukocytes entry is on record as “significantly decreased”. The number of leukocytes result in the data set with BALB/c mice is reported as “significantly reduced”.
